In patent US10239889B1, “Pentacyclic compound” (Eisai R&D Management Co., Ltd., priority 2017, dated 2019):

System: cholinergic neurons, fimbria-fornix lesioned rat model
Assay: Neuroprotective and restorative effect on cholinergic neurons using fimbria-fornix lesioned rat model (ChAT positive cells, hippocampal VAChT)
Assay type: in vivo
Conditions: % of sham-operated group, mean±SEM; for OD in hippocampal VAChT (%) in test compound administration group: hippocampus; for Number of ChAT positive cells (%) in test compound administration group: medial septal area
Method: Neuroprotective and Restorative Effect on Cholinergic Neurons Usi Ng Fimbria-Fomix Lesioned Rat Model
(1) Preparation of Fimbria-Fomix Lesioned Rat Model
In this study, Sprague-Dawley male rats (Charles River Laboratories Japan, Inc.) with a body weight of about 250 to 350 g were used. The rat was anesthetized under the combination of three drugs: midazolam (2 mg/kg s.c.), medetomidine hydrochloride (0.15 mg/kg s.c.) and butorphanol tartrate (2.5 mg/kg s.c.) and fixed with a brain stereotaxis apparatus (Narishige Co., Ltd.). The cranial was exposed and a hole with 5 mm width was drilled in the skull from the median line 2 mm posterior to Bregma. A razor with 4 mm width was pierced into the Bregma in 5.5 mm depth to cut fimbria-fornmix. After hemostasis, the scalp was sutured. After the operation, the rat was brought back to the cage and recovered from the anesthesia. In the sham-operated group, a hole with 5 mm width was drilled in the skull from the median line 2 mm posterior to Bregma, but no razor was pierced.
(2) Compound Administration
The test compounds were orally administered to the rats once a day from five days to nine days after the operation (Example 1: 10 mg/kg) or from seven days to fourteen days after the operation (Example 3: 3 mg/kg). The vehicle used was 0.01 mol/L hydrochloric acid. In the sham-operated group, the vehicle was orally administered once a day similarly to the test compound administration group.
The rats were anesthetized under pentobarbital and transcardially perfused with ice-cold PBS. After the perfusion, the forebrain including the medial septal area was collected and immersed and shaken overnight with 4% paraformaldehyde. The immersion solution was replaced with 7.5% sucrose solution. It was immersed and shaken overnight in 7.5% sucrose solution, and the immersion solution was replaced with 15% sucrose solution and it was immersed and shaken overnight. The immersion solution was replaced with 30% sucrose solution and it was immersed and shaken overnight. […]
The prepared brain coronal frozen sections were stained with DAB (DAB PEROXIDASE SUBSTRATE KIT (Vector, SK-4100)) using a ChAT antibody (Santa Cruz, S.C.-20672) or a VAChT antibody (Merck Millipore, ABN100) as a primary antibody. The section image including the medial septal area or hippocampus as shown in “The mouse Brain in stereotaxic coordinates” (COMPACT THIRD EDITION, Keith B.J. Franklin & George Paxinos) was taken by an all-in-one fluorescence microscope (KEYENCE, BZ-X710) and ChAT positive cells of the medial septal area or optical density (OD) in hippocampal VAChT were measured by BZ analysis software (KEYENCE). […] Data are expressed as the mean±SEM. The differences between the vehicle-treated group and compound-treated (significant: #) was analyzed by unpaired t-test. […]

[1] = oral 10 mg/kg once a day from five to nine days after operation
[2] = oral 3 mg/kg once a day from seven to fourteen days after operation

SMILES	OD in hippocampal VAChT (%) in test compound administration group [1]	Number of ChAT positive cells (%) in test compound administration group [1] [%]	OD in hippocampal VAChT (%) in test compound administration group [2]	Number of ChAT positive cells (%) in test compound administration group [2]
CN1CCc2c(sc3nc4n(c(=O)c23)-c2ccc(F)cc2C(=O)N(C)C4)C1 [Example 1]	77.1 ± 14.6^# %	79.1 ± 15.7		
CN1CCc2c(sc3nc4n(c(=O)c23)-c2sccc2C(=O)N(C)C4)C1 [Example 3, 5,10-dimethyl-5,6,9,10,11,12-hexahydropyrido[4″,3″:4′,5′]thieno[2′,3′:4,5]pyrimido[1,2-a]thieno[3,2-f][1,4]diazepine-4,13-dione]			66.1 ± 14.2^# %	74.1 ± 9.3^# %
